The test system of data set [1] is HT22 cells. Briefly: Oxytosis Assay (glutamate-induced cell death, MTT). Format: cell-based, mouse. Conditions: 5 mM, 16 hr, vs control group. How it is done: Oxytosis Assay. HT22 cells were seeded at 3,000 cells/well in 96-well tissue culture plates in DMEM plus 10% FBS and 1% antibiotics. After 24 hr of plating, the cells were pretreated with different concentrations of the test compounds or a vehicle control for 1 hr followed by coincubation with 5 mM glutamate to initiate the cell death cascade. After 16 hr of treatment, cell viability was measured by the 3−(4,5-dimethylthiazol-2-yl)-2,5-diphenyltetrazolium bromide (MTT) assay. Optical absorbance was measured at 570 nm on a SpectraMax M5 microplate reader. Samples were analyzed in eight to sixteen wells per independent experiment (n=8-16). Results were presented as the percentage of the controls with vehicle alone.

The subject of data set [2] is HT22 mt-GFP/mCherry-Parkin cells. The data set is described as follows: Cell viability after RSL3 with/without FCCP (CyQUANT DNA-based assay, fluorescence microscopy), mt-GFP/mCherry-Parkin cells. Also noted: species or system mouse. The settings on record: for protection against RSL3-induced cell death, no FCCP pretreatment: 16 hr; for protection against RSL3 after FCCP pretreatment (mitochondria-depleted cells): FCCP 5 μM 24 hr, then 16 hr.

Data set [3] has as its system HT22 cells. The data set is described as follows: Cellular Lipid Peroxidation Measurement (C11-BODIPY). It is filed as cell-based, mouse. How it is done: Lipid Peroxidation MeasurementsHT22 cells were seeded onto 96-well black walled plates at a density of 3,000 cells/well in DMEM supplemented with 10% FBS and 1% antibiotics. After the desired treatments, cells were labeled with 2.5 μM C11-BODIPY 581/591 (oxidized form Ex/Em=488/520 nm) at 37° C. for 2 hr. Experiments were performed according to the manufacturer's instructions. Fluorescence was measured on a SpectraMax M5 microplate reader. Data were normalized for total protein/well. Each condition was analyzed in twelve wells per independent experiment (n=12). Results were presented as the percentage of the controls with vehicle alone. Results were verified by live-cell imaging under a fluorescence microscope.

Data set [4] in a line: Cell-free, liposome-based assay of lipid peroxidation (STY-BODIPY). It is filed as biochemical. Conditions: test compounds 10 μM. As for the experimental part:
For the cell-free, liposome-based assay, STY-BODIPY (1.5 μM) and liposomes of egg-PC (1 mM) (Avanti Polar Lipids Inc, Cat #840051P, AL) in TBS (pH 7.4) were added to an opaque 96-well plate. This was followed by the addition of test compounds (10 μM). The plate was incubated for 30 min at 37° C. and then vigorously mixed for 5 min. The autoxidation was initiated by the addition of V-70 (0.5 mM) (Fujifilm Wako, Cat #001-70078, Japan), followed by additional mixing for 5 min. Data were acquired at Ex/Em=488/518 nm every 15 min at 37° C. on a SpectraMax M5 microplate reader. Data were transformed into [ox-STY-BODIPY] by taking the raw fluorescent values of the saturated curve of control DMSO and dividing them by the initial concentration of reduced STY-BODIPY ([…]). Samples were analyzed in quadruplicate in four independent experiments (n=4).

Data set [5] relates to HT22 cells. Briefly: Ferroptosis Assay (RSL3-induced cell death, MTT). Format: cell-based, mouse. The settings on record: for EC50: Mus musculus, HT-22, HT22 cells, 1 hr pretreatment, 50 nM RSL3, 16 hr, MTT, read-out: Observed EC50 RSL3. As for the experimental part: Ferroptosis Assay: HT22 cells were seeded at 3,000 cells/well in 96-well tissue culture plates in DMEM plus 10% FBS and 1% antibiotics. After 24 hr of plating, the cells were pretreated with different concentrations of test compounds or a vehicle control for 1 hr followed by coincubation with 50 nM RSL3 to induce the cell death cascade. After 16 hr of treatment, cell viability was measured by the MTT assay. Optical absorbance was measured at 570 nm on a SpectraMax M5 microplate reader. Samples were analyzed in eight to sixteen wells per independent experiment (n=8-16). Results were presented as the percentage of the controls with vehicle alone.

Data set [6] relates to HT22 cells. Briefly: Mitochondrial Membrane Potential Assay (JC-10) in HT22 cells. It is filed as cell-based, mouse. The settings on record: 50 nM, 4 hr. How it is done:
Mitochondrial Membrane Potential Assay. Cells seeded at 5,000 cells/well onto 96-well black walled plates were treated with test compounds at the desired concentrations under the culture condition described above. The mitochondrial uncoupler FCCP at 2 μM was used as a reference control. After the desired treatments for 4 hr, the cells were subjected to a JC-10 mitochondrial membrane potential assay according to the manufacturer's instruction. Fluorescence intensities (Ex/Em=490/525 nm, and Ex/Em=540/590 nm) of each well were monitored on a SpectraMax M5 microplate reader. The ratio of fluorescence intensity (590/525 nm) was used to determine the mitochondrial membrane potential (ΔΨm). Decreasing ratios indicate mitochondrial membrane depolarization. Samples were analyzed in eight to sixteen wells per independent experiment (n=8-16). Results were verified by live-cell imaging under a fluorescence microscope.

In data set [7] the test system is HT22 cells. The data set is described as follows: MitoTracker Assay (mitochondrial mass). It is filed as cell-based, mouse. Conditions: 50 nM, vs control cells. How it is done: MitoTracker Assay. HT22 cells were seeded onto 96-well black walled plates at a density of 5,000 cells/well in DMEM supplemented with 10% FBS and 1% antibiotics. After the desired treatments, MitoTracker Orange CM−H2TMRos (Ex/Em=554/576 nm) and Hoechst 33342 (Ex/Em=360/460 nm) dyes were added to the cells and incubated under the same culture condition for 2 hr. Fluorescence was measured on a SpectraMax M5 microplate reader. Experiments were performed according to the manufacturer's instructions. Data were normalized for total protein/well. Each condition was analyzed in sixteen wells per independent experiment (n=16). Results were presented as the percentage of the controls with vehicle alone. Results were verified by live-cell imaging under a fluorescence microscope.

For data set [8], the system named is HT22 mt-GFP WT cells. Briefly: Cell viability after RSL3 with/without FCCP (CyQUANT DNA-based assay, fluorescence microscopy), mt-GFP WT cells. Also noted: species or system mouse.
Test in data set [9]: as above
Also on record: species or system mouse. The settings on record: mouse, HT22 mt-GFP WT cells, FCCP treatment 40 hr, read-out: decrease in cell viability compared to the vehicle control.

A short description of data set [10]: Cell viability after RSL3 with/without FCCP (CyQUANT DNA-based assay, fluorescence microscopy), mt-GFP/mCherry-Parkin cells. Also on record: species or system mouse. The settings on record: mouse, HT22 mt-GFP/mCherry-Parkin cells, FCCP treatment 40 hr, read-out: decrease in cell viability compared to the vehicle control.
The subject of data set [11] is HT22 cells. Briefly: Oxytosis/ferroptosis assay with erastin (Table 2). Format: cell-based. The settings on record: Mus musculus, HT-22; erastin as inducer; method not given; read-out: Observed EC50 erastin.

Some results are limits rather than exact numbers.

As usually defined, the EC50 is the midpoint of the concentration-response curve.

Regarding `N[C@@H](CCC(=O)O)C(=O)O` [glutamate, reference compound], in [1], the “cell death by inducer alone” value was 40-60%.

As to `COC1=C(OC)C(=O)C(CCCCCCCCCC[P+](c2ccccc2)(c2ccccc2)c2ccccc2)=C(C)C1=O` [MitoQ], in [2], the “protection against RSL3-induced cell death, no FCCP pretreatment” value was “effectively protected” and the “protection against RSL3 after FCCP pretreatment (mitochondria-depleted cells)” value is recorded as “showed no cytoprotection”.

For `CCOC(=O)c1ccc(NC2CCCCC2)c(N)c1` [ferrostatin], the “RSL3-induced cellular lipid peroxidation” value in [3] (50 nM RSL3, 16 hr, p<0.0001) was “effectively suppressed”. Further, in [3] (CBN 5 μM, ferrostatin 10 μM, 16 hr), the “basal cellular lipid peroxidation, compound alone” value is listed as “neither CBN (5 μM) nor ferrostatin (10 μM) alone changed basal levels of lipid peroxidation”. In data set [4], the “inhibition of lipid peroxidation, cell-free” value was “showed a potent effect against lipid peroxidation”. Also, in data set [2], the “protection against RSL3-induced cell death, no FCCP pretreatment” value is reported as “effectively protected” and the “protection against RSL3 after FCCP pretreatment (mitochondria-depleted cells)” value is “rescued”.

For `COC(=O)c1ccc([C@@H]2c3[nH]c4ccccc4c3C[C@@H](C(=O)OC)N2C(=O)CCl)cc1` [RSL3, reference compound], the “cell death by inducer alone” value in data set [5] (50 nM, 16 hr, vs control group) is on record as 40-60%. For the same compound, the “increase of cellular lipid peroxidation level” value in data set [3] (50 nM, 16 hr) is reported as “approximately 30%”. In addition, in data set [6], the “effect on ΔΨm” value is “no impact”. In addition, the “decrease of MitoTracker intensity” value in data set [7] worked out at 8.4%. The “cell viability in FCCP pretreated cells” value in data set [8] and in [2] was 10-15% each time.

In the case of `N#CC(C#N)=NNc1ccc(OC(F)(F)F)cc1` [FCCP, carbonyl cyanide-4-(trifluoromethoxy)phenylhydrazone, reference compound], the cytotoxicity at 40 hr, 5 μM in [9] and in data set [10] was ~40% throughout.

Turning to `CCCCCc1cc(O)c(C/C=C(\C)CCC=C(C)C)c(O)c1` [CBG, 2-[(2E)-3,7-Dimethylocta-2,6-dienyl]-5-pentyl-benzene-1,3-diol], the EC50 in data set [11] worked out at 10.8 µM; in [5] it was 3200 nM.

On to `C=C(C)C1CCC(C)=CC1c1c(OC(C)=O)cc(CCCCC)cc1OC(C)=O` (stereo not drawn) [CBD-(OAc)2, 5′-methyl-4-pentyl-2′-(prop-1-en-2-yl)-1′,2′,3′,4′-tetrahydro-[1,1′-biphenyl]-2,6-diyl diacetate], for which the results for the EC50 in data set [11] and in data set [5] were 9.1 µM and 2400 nM, respectively.

Turning to `C=C(C)[C@@H]1CCC(C)=C[C@H]1c1c(O)cc(CCC)cc1O` [CBDV, 2-[(1R,6R)-6-Isopropenyl-3-methylcyclohex-2-en-1-yl]-5-propylbenzene-1,3-diol], the EC50 in data set [11] was 3.8 µM; in [5] it was 1000 nM.

As to `CCCCCc1cc(O)c([C@H]2C=C(C)CC[C@@H]2C(C)C)c(O)c1` [H2CBD, 2-[(1R,6R)-6-Isopropyl-3-methylcyclohex-2-en-1-yl]-5-pentylbenzene-1,3-diol], the EC50 in data set [11] stood at 4.8 µM; in data set [5] it was 1100 nM.

Regarding `CCCCCc1cc2c(c(O)c1C(=O)O)[C@@H]1C=C(C)CC[C@H]1C(C)(C)O2` [THCA, (6aR,10aR)-1-Hydroxy-6,6,9-trimethyl-3-pentyl-6a,7,8,10a-tetrahydro-6H-benzo[c]chromene-2-carboxylic acid], the EC50 in data set [11] was > 10 µM; in data set [5], > 10000 nM.

Consider `C=C(C)C1CCC2(C)CC1c1c(O)cc(CCCCC)cc1O2` (stereo not drawn) [D8(9)-iso-THC, 3,4,5,6-tetrahydro-2-methyl-5-(1-methylethenyl)-9-pentyl-2,6-methano-2H-1-benzoxocin-7-ol], for which the EC50 in data set [11] worked out at 2.1 µM; in data set [5], 330 nM.

Take `CCCCCc1cc2c(c(O)c1C(=O)O)-c1cc(C)ccc1C(C)(C)O2` [CBNA, 1-hydroxy-6,6,9-trimethyl-3-pentyl-benzo[c]chromene-2-carboxylic acid]: the figures for the EC50 in [11] and in data set [5] were > 10 µM and > 10000 nM, respectively.

For the compound `C=C(C)c1ccc(C)cc1-c1c(O)cc(CCCCC)cc1O` [CBND, 2,6-dihydroxy-4-pentyl-2′-isopropenyl-5′-methyl-1,1′-biphenyl], the EC50 in [11] worked out at 15.4 µM; in data set [5], 7700 nM.

Consider `CCc1cc(O)c2c(c1)OC(C)(C)c1ccc(C)cc1-2` [CBN-C2, 3-ethyl-6,6,9-trimethyl-6H-benzo[c]chromen-1-ol], for which the EC50 in data set [11] was 5.6 µM; in data set [5], 1800 nM.

As for `CCCCCc1cc(O)c2c(c1)OC(C)(C)c1ccc(CO)cc1-2` [11-OH-CBN, 9-(hydroxymethyl)-6,6-dimethyl-3-pentyl-6H-benzo[c]chromen-1-ol], the EC50 in data set [11] was 4.7 µM; in [5] it was 1300 nM.

Turning to `CCCCCc1cc(O)c2c(c1)O[C@]1(C)CC[C@@H](C(C)C)[C@H]2C1` [iso-HHC, (2α,5α,6α)-(−)-3,4,5,6-tetrahydro-2-methyl-5-(1-methylethyl)-9-pentyl-2,6-methano-2H-1-benzoxocin-7-ol], the EC50 in data set [11] worked out at 2.4 µM; in data set [5], 800 nM.

For `CCCCCc1cc(O)c2c(c1)OC1(C)CCC(=C(C)C)C2C1` (stereo not drawn) [D4(8)-iso-THC, 3,4,5,6-tetrahydro-2-methyl-5-(1-methylethylidene)-9-pentyl-2,6-methano-2H-1-benzoxocin-7-ol], the EC50 in data set [11] was determined as 1.5 µM; in data set [5] it was 340 nM.

As for `CCCCCCCc1cc(O)c2c(c1)OC(C)(C)c1ccc(C)cc1-2` [CBN-C7, 3-heptyl-6,6,9-trimethyl-6H-benzo[c]chromen-1-ol], the EC50 is 3.8 µM in data set [11] and 2000 nM in data set [5].

Values taken from patent publication US20240261302A1, “METHODS OF TREATING NEURODEGENERATIVE DISEASES OR CONDITIONS” (FloraScience Inc., priority 2023, published 2024).
